Reference: patent publication US11306078B2, “Piperidine CXCR7 receptor modulators” (IDORSIA PHARMACEUTICALS LTD., priority 2016, dated 2022)

Biological target: human chemokine receptor CXCR7 (Homo sapiens (Human), UniProt P25106)
Assay: Tango CXCR7-bla U2OS beta-arrestin recruitment assay (beta-lactamase reporter, FRET), antagonism of CXCL12/SDF1-α;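 also: compounds preincubated 15 min before CXCL12 addition, then 22 h at 37 °C, FRET emission ratio read with CCF4-AM substrate after 2 h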
Format: cell-based
Settings: antagonistic effect on CXCR7; Tango CXCR7-bla U2OS cells, CXCL12/SDF1-α at its EC80

Chain of human chemokine receptor CXCR7 (P25106 whole entry): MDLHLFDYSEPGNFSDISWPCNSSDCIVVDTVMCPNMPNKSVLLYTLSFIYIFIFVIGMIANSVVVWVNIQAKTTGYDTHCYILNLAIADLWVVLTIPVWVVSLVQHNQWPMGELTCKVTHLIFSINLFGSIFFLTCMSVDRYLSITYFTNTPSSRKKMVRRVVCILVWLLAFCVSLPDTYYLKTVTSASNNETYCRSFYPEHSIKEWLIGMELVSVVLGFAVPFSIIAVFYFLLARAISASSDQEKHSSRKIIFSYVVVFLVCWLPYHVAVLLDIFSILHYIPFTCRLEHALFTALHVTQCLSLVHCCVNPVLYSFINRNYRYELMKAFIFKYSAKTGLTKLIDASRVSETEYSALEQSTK

SMILES | IC50
N#Cc1ccc(-c2cc(C(=O)N[C@H]3CCN(CC4CC4)C[C@@H]3C(=O)NC3(c4ncccn4)CC3)no2)cc1 [Example 7.009, (3S,4S)-4-{[5-(4-Cyano-phenyl)-isoxazole-3-carbonyl]-amino}-1-cyclopropylmethyl-piperidine-3-carboxylic acid (1-pyrimidin-2-yl-cyclopropyl)-amide] | 240 nM
O=C(N[C@@H]1CCN(CC2CC2)C[C@H]1C(=O)NC1(c2ncccn2)CC1)c1cc(-c2cccc(C(F)(F)F)c2)on1 (single isomer, unassigned) [Example 1.193a, (3R,4R)-1-Cyclopropylmethyl-4-{[5-(3-trifluoromethyl-phenyl)-isoxazole-3-carbonyl]-amino}-piperidine-3-carboxylic acid (1-pyrimidin-2-yl-cyclopropyl)-amide or (3S,4S)-1-cyclopropylmethyl-4-{[5-(3-trifluoromethyl-phenyl)-isoxazole-3-carbonyl]-amino}-piperidine-3-carboxylic acid (1-pyrimidin-2-yl-cyclopropyl)-amide] | 97 nM
CN(C)C(=O)[C@@H]1CN(CC2(C)CCC2)CC[C@H]1NC(=O)c1cc(-c2ccc(F)cc2F)on1 [Example 2.035] | 121 nM
CC(C)(C)CN1CC[C@H](NC(=O)c2cc(-c3ccc(F)cc3F)on2)[C@@H](C(=O)NC2(c3ncccn3)CC2)C1 [Example 2.069] | 6 nM
O=C(N[C@@H]1CCN(CC2CC2)C[C@H]1C(=O)NC1(c2ccccn2)CC1)c1cc(-c2c(F)cc(F)cc2F)on1 (single isomer, unassigned) [Example 1.171b, (3R*,4R*)-1-Cyclopropylmethyl-4-{[5-(2,4,6-trifluoro-phenyl)-isoxazole-3-carbonyl]-amino}-piperidine-3-carboxylic acid (1-pyridin-2-yl-cyclopropyl)-amide] | 446 nM
CN(C)C(=O)[C@@H]1CN(CC(C)(C)C)CC[C@H]1NC(=O)c1cc(-c2ccc(F)cc2F)on1 [Example 2.02] | 248 nM
C[C@@H]1CCC[C@H]1N1CC[C@@H](NC(=O)c2cc(-c3c(F)cc(F)cc3F)on2)[C@H](C(=O)N(C)C)C1 (relative stereo) [Example 1.101, (3R*,4R*)-1-((1RS,2RS)-2-Methyl-cyclopentyl)-4-{[5-(2,4,6-trifluoro-phenyl)-isoxazole-3-carbonyl]-amino}-piperidine-3-carboxylic acid dimethylamide] | 45 nM
O=C(N[C@@H]1CCN(CC2CC2)C[C@H]1C(=O)NC1(c2ncccn2)CC1)c1cc(-c2ccc(F)c(F)c2F)on1 (single isomer, unassigned) [Example 1.194a, (3R,4R)-1-Cyclopropylmethyl-4-{[5-(2,3,4-trifluoro-phenyl)-isoxazole-3-carbonyl]-amino}-piperidine-3-carboxylic acid (1-pyrimidin-2-yl-cyclopropyl)-amide or (3S,4S)-1-cyclopropylmethyl-4-{[5-(2,3,4-trifluoro-phenyl)-isoxazole-3-carbonyl]-amino}-piperidine-3-carboxylic acid (1-pyrimidin-2-yl-cyclopropyl)-amide] | 13 nM
CN(C)C(=O)[C@@H]1CN(C2CCCCC2)CC[C@H]1NC(=O)c1cn(-c2ccc(F)cc2F)nn1 (racemic) [Example 1.095, rac-(3R*,4R*)-1-Cyclohexyl-4-{[1-(2,4-difluoro-phenyl)-1H-[1,2,3]triazole-4-carbonyl]-amino}-piperidine-3-carboxylic acid dimethylamide] | 254 nM
C[C@@H](NC(=O)[C@H]1CN(C2CCCCC2)CC[C@@H]1NC(=O)c1noc(-c2ccc(F)cc2F)n1)c1ccccn1 (single isomer, unassigned) [Example 1.156a, (3S,4S)-1-Cyclohexyl-4-{[5-(2,4-difluoro-phenyl)-[1,2,4]oxadiazole-3-carbonyl]-amino}-piperidine-3-carboxylic acid ((R)-1-pyridin-2-yl-ethyl)-amide or (3R,4R)-1-Cyclohexyl-4-{[5-(2,4-difluoro-phenyl)-[1,2,4]oxadiazole-3-carbonyl]-amino}-piperidine-3-carboxylic acid ((R)-1-pyridin-2-yl-ethyl)-amide] | 19 nM
O=C(N[C@H]1CCN(CC2CC2)C[C@@H]1C(=O)NCCc1ccccc1Cl)c1cc(-c2ccc(F)cc2F)on1 [Example 4.065] | 14 nM
O=C(N[C@@H]1CCN(CC2CC2)C[C@H]1C(=O)NC1(c2ncccn2)CC1)c1cc(-c2cccc(F)c2F)on1 (racemic) [Example 1.199, rac-(3R*,4R*)-1-Cyclopropylmethyl-4-{[5-(2,3-difluoro-phenyl)-isoxazole-3-carbonyl]-amino}-piperidine-3-carboxylic acid (1-pyrimidin-2-yl-cyclopropyl)-amide] | 273 nM
O=C(N[C@@H]1CCN(CC2CC2)C[C@H]1C(=O)NC1(c2ccccn2)CC1)c1cn(-c2ccc(F)cc2F)nn1 (racemic) [Example 1.167, rac-(3R*,4R*)-1-Cyclopropylmethyl-4-{[1-(2,4-difluoro-phenyl)-1H-[1,2,3]triazole-4-carbonyl]-amino}-piperidine-3-carboxylic acid (1-pyridin-2-yl-cyclopropyl)-amide] | 134 nM

Results, then the compound that gave them:

IC50 | SMILES
20 nM | O=C(N[C@H]1CCN(C2CCC2)C[C@@H]1C(=O)NC1(c2ncccc2F)CC1)c1cc(-c2ccc(F)cc2F)on1 [Example 4.082]
165 nM | CN(C)C(=O)[C@@H]1CN(CC2=CCCC2)CC[C@H]1NC(=O)c1cc(-c2ccc(F)cc2F)on1 [Example 2.036]
238 nM | CN(C(=O)[C@@H]1CN(C2CCCCC2)CC[C@H]1NC(=O)c1cc(-c2ccc(F)cc2F)on1)C1CC1 (racemic) [Example 1.013, rac-(3R*,4R*)-1-Cyclohexyl-4-{[5-(2,4-difluoro-phenyl)-isoxazole-3-carbonyl]-amino}-piperidine-3-carboxylic acid cyclopropyl-methyl-amide]
338 nM | CN(C)C(=O)[C@@H]1CN(C2CCCCC2)CC[C@H]1NC(=O)c1cc(-c2ccc(F)cc2Cl)on1 (racemic) [Example 3.004, rac-(3R*,4R*)-4-{[5-(2-Chloro-4-fluoro-phenyl)-isoxazole-3-carbonyl]-amino}-1-cyclohexyl-piperidine-3-carboxylic acid dimethylamide]
198 nM | Cc1cc(CNC(=O)[C@@H]2CN(C3CCCCC3)CC[C@H]2NC(=O)c2cc(-c3ccc(F)cc3F)on2)no1 (racemic) [Example 1.022, rac-(3R*,4R*)-1-Cyclohexyl-4-{[5-(2,4-difluoro-phenyl)-isoxazole-3-carbonyl]-amino}-piperidine-3-carboxylic acid (5-methyl-isoxazol-3-ylmethyl)-amide]
592 nM | C[C@@H](NC(=O)[C@@H]1CN(C2CCCC2)CC[C@H]1NC(=O)c1cn(-c2ccc(F)cc2F)nn1)C1CCC1 (relative stereo) [Example 1.135, (3R*,4R*)-1-Cyclopentyl-4-{[1-(2,4-difluoro-phenyl)-1H-[1,2,3]triazole-4-carbonyl]-amino}-piperidine-3-carboxylic acid ((R)-1-cyclobutyl-ethyl)-amide]
556 nM | O=C(N[C@@H]1CCN(C2CCCCC2)C[C@H]1C(=O)NC(c1ccccn1)C(F)(F)F)c1cc(-c2ccc(F)cc2F)on1 (relative stereo) [Example 1.069, (3R*,4R*)-1-Cyclohexyl-4-{[5-(2,4-difluoro-phenyl)-isoxazole-3-carbonyl]-amino}-piperidine-3-carboxylic acid ((1RS)-2,2,2-trifluoro-1-pyridin-2-yl-ethyl)-amide]
38 nM | CN(C)C(=O)[C@@H]1CN(C2CCCCC2)CC[C@H]1NC(=O)c1cc(-c2c(F)cc(F)cc2F)on1 (racemic) [Example 3.005, rac-(3R*,4R*)-1-Cyclohexyl-4-{[5-(2,4,6-trifluoro-phenyl)-isoxazole-3-carbonyl]-amino}-piperidine-3-carboxylic acid dimethylamide]
134 nM | CC(C)(CNC(=O)[C@@H]1CN(C2CCC2)CC[C@H]1NC(=O)c1cc(-c2ccc(F)cc2F)on1)c1ccccc1Cl [Example 4.091]
269 nM | CN(C)C(=O)[C@@H]1CN([C@@H]2CCC[C@H]2CO)CC[C@H]1NC(=O)c1cc(-c2ccc(F)cc2F)on1 [Example 2.014]
445 nM | CC(CF)NC(=O)[C@@H]1CN(C2CCCCC2)CC[C@H]1NC(=O)c1cc(-c2ccc(F)cc2F)on1 (relative stereo) [Example 1.082, (3R*,4R*)-1-Cyclohexyl-4-{[5-(2,4-difluoro-phenyl)-isoxazole-3-carbonyl]-amino}-piperidine-3-carboxylic acid ((1RS)-2-fluoro-1-methyl-ethyl)-amide]
103 nM | C[C@@H](NC(=O)[C@@H]1CN(C2CCCCC2)CC[C@H]1NC(=O)c1cc(-c2ccc(F)cc2F)on1)C1CCC1 (relative stereo) [Example 1.091, (3R*,4R*)-1-Cyclohexyl-4-{[5-(2,4-difluoro-phenyl)-isoxazole-3-carbonyl]-amino}-piperidine-3-carboxylic acid ((R)-1-cyclobutyl-ethyl)-amide]
647 nM | C[C@@H](NC(=O)[C@@H]1CN(C2CCCCC2)CC[C@H]1NC(=O)c1cc(-c2c(F)cc(F)cc2F)on1)c1cnccn1 (single isomer, unassigned) [Example 1.129a, (3R*,4R*)-1-Cyclohexyl-4-{[5-(2,4,6-trifluoro-phenyl)-isoxazole-3-carbonyl]-amino}-piperidine-3-carboxylic acid ((R)-1-pyrazin-2-yl-ethyl)-amide]
591 nM | Cc1ncsc1CNC(=O)[C@@H]1CN(C2CCCCC2)CC[C@H]1NC(=O)c1cc(-c2ccc(F)cc2F)on1 (racemic) [Example 1.033, rac-(3R*,4R*)-1-Cyclohexyl-4-{[5-(2,4-difluoro-phenyl)-isoxazole-3-carbonyl]-amino}-piperidine-3-carboxylic acid (4-methyl-thiazol-5-ylmethyl)-amide]
26 nM | C[C@@H](NC(=O)[C@@H]1CN([C@@H]2CCCC[C@H]2O)CC[C@H]1NC(=O)c1cc(-c2ccc(F)cc2F)on1)c1ccccn1 [Example 2.053]
280 nM | CC(NC(=O)[C@H]1CN(C2CCCC2)CC[C@@H]1NC(=O)c1cc(-c2ccc(F)cc2F)on1)C1CCCO1 (stereo partly drawn) [Example 4.037]
1 nM | O=C(N[C@H]1CCN(CC2CC2)C[C@@H]1C(=O)NC1(c2ccccc2)CC1)c1cc(-c2ccc(F)cc2F)on1 [Example 4.053]
